The record followed here is ChEMBL document CHEMBL1201862, “PubChem BioAssay data set” (2004).

Test [1] deals with T1, Coagulation factor XII (Homo sapiens, UniProt P00748).
T1 sequence (P00748 whole entry): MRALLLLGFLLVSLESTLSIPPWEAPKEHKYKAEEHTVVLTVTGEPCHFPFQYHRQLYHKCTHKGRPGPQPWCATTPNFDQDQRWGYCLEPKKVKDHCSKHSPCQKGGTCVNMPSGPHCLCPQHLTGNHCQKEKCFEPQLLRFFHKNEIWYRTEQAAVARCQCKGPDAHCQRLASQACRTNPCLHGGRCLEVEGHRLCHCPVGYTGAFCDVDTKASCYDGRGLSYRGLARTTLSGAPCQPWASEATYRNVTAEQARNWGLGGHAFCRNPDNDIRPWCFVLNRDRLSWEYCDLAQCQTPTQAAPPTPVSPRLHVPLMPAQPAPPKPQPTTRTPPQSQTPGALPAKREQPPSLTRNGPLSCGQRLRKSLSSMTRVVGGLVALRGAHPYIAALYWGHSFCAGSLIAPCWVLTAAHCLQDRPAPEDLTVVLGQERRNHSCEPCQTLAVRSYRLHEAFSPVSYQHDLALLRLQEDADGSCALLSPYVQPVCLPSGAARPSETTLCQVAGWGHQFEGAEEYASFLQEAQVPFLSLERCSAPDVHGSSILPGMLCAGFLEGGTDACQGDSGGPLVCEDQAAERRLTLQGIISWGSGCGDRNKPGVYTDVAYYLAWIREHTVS
In kind it is functional.

Test [2] has as its target T2, Microphthalmia-associated transcription factor (Homo sapiens, UniProt O75030).
T2 sequence (O75030 whole entry): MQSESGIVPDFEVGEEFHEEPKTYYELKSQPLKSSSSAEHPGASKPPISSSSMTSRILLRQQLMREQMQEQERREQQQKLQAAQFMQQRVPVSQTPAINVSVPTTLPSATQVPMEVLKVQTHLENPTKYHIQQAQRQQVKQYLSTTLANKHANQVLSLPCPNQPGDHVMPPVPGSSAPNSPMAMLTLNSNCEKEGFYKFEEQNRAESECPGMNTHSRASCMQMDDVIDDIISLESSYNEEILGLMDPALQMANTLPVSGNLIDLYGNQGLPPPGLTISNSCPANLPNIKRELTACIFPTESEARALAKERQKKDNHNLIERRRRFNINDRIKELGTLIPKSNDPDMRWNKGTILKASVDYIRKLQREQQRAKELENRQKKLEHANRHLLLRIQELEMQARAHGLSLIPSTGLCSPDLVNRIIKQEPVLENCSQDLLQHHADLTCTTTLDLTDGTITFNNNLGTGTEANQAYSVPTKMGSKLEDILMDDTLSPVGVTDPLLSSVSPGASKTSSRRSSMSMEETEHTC
The test is described as follows: TRPM1 promoter luciferase signal decrease, dose response, MITF inhibitor project, cell-based, SK-MEL-5, cherry-picked, set 3 (AID 493073).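 Note: SK-MEL-5 melanoma cells with luciferase driven by the MITF target TRPM1 promoter.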 Format: functional.

The target of test [3] is Paired box protein Pax-8 (Homo sapiens, UniProt Q06710). Nature of the test: inhibitors of PAX8-driven TPO luciferase reporter, dose response, RMG-I cells, cherry-pick (AID 687027).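 Note: luciferase reporter driven by Pax8 target thyroperoxidase promoter measured by SteadyGlo luminescence.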 Format: functional, cell-based.
Sequence of Paired box protein Pax-8 (Q06710 whole entry): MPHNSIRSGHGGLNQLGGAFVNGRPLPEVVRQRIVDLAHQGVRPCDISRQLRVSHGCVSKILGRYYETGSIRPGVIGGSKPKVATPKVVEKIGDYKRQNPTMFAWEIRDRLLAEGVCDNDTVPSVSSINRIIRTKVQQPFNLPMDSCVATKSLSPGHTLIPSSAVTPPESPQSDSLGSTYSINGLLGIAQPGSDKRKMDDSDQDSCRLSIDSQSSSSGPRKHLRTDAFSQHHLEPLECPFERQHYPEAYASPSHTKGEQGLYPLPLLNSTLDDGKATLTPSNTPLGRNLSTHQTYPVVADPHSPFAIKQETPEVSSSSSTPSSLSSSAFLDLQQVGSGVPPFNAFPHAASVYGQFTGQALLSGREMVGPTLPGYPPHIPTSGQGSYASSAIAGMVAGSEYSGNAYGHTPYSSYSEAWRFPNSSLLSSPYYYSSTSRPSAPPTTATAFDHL
Test [4] has as its target T3, Caspase-6 (Homo sapiens, UniProt P55212).
T3 sequence (P55212 whole entry): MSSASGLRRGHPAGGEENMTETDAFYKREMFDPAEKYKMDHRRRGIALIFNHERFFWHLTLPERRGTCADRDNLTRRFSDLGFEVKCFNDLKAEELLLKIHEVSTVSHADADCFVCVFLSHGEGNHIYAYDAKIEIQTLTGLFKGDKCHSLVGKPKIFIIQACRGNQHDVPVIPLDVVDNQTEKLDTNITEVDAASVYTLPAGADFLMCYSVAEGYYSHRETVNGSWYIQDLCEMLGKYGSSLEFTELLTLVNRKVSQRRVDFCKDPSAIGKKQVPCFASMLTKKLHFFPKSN
The test is described as follows: human caspase-6 inhibitors, dose response, biochemical, VEID-R110 fluorescence, cherry-pick (AID 720632).

The nature of test [5]: microbe, parasite or virus in culture. In kind it is functional. To be noted: Mycobacterium tuberculosis.
Test [6] can be described thus: THP-1 cell cytotoxicity, dose response, cytotoxicity control for non-replicating M. tuberculosis project (AID 489025). In kind it is functional.
Test [7] in a line: Vero E6 cell cytotoxicity, dose response, cytotoxicity control for non-replicating M. tuberculosis project, secondary assay (AID 492998). Format: functional, VeroE6. The settings on record: Vero C1008.
Test [8] can be described thus: cells. Format: functional.
Test [9] has as its system HEK293. The test is described as follows: cells. The settings on record: Homo sapiens.
The subject of test [10] is HEK293. The test is described as follows: cells. The settings on record: Homo sapiens. The source holds these as a separate data set.
For test [11], the target named is SUMO-activating enzyme (Homo sapiens, UniProt Q9UBT2). Nature of the test: SUMOylation inhibitor hit validation, confirmation, SUMOylation inhibitor project, biochemical, AlphaScreen (AID 2018). In kind it is functional.
Sequence of SUMO-activating enzyme (Q9UBE0 whole entry): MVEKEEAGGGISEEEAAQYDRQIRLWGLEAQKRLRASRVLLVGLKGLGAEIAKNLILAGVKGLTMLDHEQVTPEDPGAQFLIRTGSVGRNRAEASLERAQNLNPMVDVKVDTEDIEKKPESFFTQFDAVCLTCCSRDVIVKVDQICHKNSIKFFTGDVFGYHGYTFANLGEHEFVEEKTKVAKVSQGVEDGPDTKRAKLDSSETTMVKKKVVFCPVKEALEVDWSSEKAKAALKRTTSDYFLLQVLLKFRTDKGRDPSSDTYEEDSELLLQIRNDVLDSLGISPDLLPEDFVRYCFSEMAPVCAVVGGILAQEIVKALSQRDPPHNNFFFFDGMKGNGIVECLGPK
Sequence of SUMO-activating enzyme (Q9UBT2 whole entry): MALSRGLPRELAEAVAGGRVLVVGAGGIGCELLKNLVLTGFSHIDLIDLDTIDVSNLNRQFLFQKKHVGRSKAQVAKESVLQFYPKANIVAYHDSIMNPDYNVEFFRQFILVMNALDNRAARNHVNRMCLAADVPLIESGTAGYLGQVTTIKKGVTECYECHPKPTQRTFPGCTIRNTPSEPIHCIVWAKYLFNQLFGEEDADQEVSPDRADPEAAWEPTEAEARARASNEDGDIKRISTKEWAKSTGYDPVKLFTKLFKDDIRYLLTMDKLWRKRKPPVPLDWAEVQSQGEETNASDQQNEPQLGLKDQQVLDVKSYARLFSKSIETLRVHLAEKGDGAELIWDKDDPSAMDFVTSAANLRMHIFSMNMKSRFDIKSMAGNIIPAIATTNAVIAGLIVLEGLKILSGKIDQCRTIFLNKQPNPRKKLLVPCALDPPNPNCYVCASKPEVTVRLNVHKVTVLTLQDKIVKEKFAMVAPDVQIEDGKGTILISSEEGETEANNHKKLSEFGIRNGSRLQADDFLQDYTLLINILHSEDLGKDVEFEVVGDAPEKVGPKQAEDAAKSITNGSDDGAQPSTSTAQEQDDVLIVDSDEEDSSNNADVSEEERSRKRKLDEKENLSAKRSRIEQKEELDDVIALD
Test [12] deals with T4, Replicative DNA helicase DnaB (Mycobacterium tuberculosis, UniProt P9WMR3).
T4 sequence (P9WMR3 whole entry): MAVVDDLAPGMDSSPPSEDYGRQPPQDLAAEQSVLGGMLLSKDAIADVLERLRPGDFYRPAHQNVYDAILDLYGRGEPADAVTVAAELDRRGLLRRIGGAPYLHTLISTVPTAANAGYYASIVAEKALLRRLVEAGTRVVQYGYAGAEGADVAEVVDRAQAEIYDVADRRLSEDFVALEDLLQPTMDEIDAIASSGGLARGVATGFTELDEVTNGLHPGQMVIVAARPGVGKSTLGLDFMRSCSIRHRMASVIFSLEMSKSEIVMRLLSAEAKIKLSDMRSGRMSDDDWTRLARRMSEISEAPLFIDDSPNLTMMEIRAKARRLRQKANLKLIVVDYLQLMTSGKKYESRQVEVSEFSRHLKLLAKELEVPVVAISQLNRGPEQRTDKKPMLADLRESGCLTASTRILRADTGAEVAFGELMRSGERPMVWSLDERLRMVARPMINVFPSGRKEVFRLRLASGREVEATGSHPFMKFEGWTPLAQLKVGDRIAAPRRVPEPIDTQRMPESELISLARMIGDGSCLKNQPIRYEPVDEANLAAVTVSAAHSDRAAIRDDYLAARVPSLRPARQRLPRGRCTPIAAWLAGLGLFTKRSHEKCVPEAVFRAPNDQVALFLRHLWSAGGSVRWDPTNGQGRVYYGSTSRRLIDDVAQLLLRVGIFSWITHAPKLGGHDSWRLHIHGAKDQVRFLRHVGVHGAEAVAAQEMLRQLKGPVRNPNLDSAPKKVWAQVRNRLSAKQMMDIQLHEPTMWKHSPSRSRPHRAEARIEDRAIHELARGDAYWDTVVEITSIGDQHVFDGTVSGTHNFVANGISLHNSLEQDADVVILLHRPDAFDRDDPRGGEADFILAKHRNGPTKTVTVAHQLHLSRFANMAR
Nature of the test: DnaB intein splicing inhibitors, dose response, biochemical, cell-free fluorescence (AID 449749). In kind it is functional.

The target in test [13] is T5, Protein RecA (Mycobacterium tuberculosis, UniProt P9WHJ3).
T5 sequence (P9WHJ3 whole entry): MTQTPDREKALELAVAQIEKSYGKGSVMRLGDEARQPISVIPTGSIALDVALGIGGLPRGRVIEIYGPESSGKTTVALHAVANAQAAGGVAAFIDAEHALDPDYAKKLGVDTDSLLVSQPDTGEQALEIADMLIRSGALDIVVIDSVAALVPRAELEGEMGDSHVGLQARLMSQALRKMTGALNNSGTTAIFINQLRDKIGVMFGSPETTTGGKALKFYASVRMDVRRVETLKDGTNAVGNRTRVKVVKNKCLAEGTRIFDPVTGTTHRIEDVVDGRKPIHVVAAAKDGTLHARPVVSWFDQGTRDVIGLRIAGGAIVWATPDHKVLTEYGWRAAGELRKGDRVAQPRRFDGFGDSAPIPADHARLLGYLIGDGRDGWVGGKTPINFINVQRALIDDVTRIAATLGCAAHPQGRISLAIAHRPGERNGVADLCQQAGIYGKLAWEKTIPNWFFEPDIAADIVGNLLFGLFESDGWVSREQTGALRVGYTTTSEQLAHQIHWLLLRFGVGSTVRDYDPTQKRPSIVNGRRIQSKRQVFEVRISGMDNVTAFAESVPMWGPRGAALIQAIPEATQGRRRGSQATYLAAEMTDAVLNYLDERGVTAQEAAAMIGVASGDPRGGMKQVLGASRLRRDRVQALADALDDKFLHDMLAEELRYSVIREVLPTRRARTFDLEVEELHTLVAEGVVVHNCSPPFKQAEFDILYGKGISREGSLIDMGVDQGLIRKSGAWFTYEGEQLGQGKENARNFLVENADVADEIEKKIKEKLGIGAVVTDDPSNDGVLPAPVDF
Nature of the test: Fluorescence Cell-Free Homogeneous Dose Retest to Identify Inhibitors of RecA-Intein Splicing Activity. [Related pubchem assays (depositor defined):AID2097, AID2223, AID489010, AID492950]. Format: functional.

A short description of test [14]: Shn3 3'UTR reporter inhibitors, dose response, cell-based, Clone20 osteoblasts, firefly luciferase, cherry-picked (AID 624132).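 Note: firefly luciferase luminescence from reporter carrying the Shn3 3'UTR in osteoblasts.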 In kind it is functional.
The nature of test [15]: HepG2 cell cytotoxicity, dose response, cytotoxicity control for Shn3 inhibitor project, CellTiter-Glo, cherry-picked (AID 624134). Format: functional, cell-based.
The nature of test [16]: control 3'UTR Renilla luciferase suppression, dose response, counter-screen for Shn3 inhibitor project, cell-based, Clone20-Shn3RL, cherry-picked (AID 624133). Format: functional. Background: Counterscreens check selectivity or assay interference.
In test [17] the target is T6, CAAX prenyl protease 2 (Saccharomyces cerevisiae S288c, UniProt Q03530).
T6 sequence (Q03530 whole entry): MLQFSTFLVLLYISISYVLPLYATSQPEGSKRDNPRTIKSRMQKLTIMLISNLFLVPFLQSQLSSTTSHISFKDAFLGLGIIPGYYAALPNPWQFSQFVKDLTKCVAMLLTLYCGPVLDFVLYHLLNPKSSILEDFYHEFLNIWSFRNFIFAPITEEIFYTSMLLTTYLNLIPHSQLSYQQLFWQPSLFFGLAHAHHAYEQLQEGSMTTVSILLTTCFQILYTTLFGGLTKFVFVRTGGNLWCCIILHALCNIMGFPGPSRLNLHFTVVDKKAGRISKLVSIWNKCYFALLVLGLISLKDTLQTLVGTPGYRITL
In kind it is biochemical.

The target in test [18] is Eukaryotic translation initiation factor 4E (Mus musculus, UniProt P63073). The test is described as follows: eIF4E–eIF4G protein interaction inhibitors, dose response, biochemical, TR-FRET (AID 855).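 Note: potency for disrupting eIF4E binding to eIF4GI seen as loss of FRET.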 In kind it is functional. On the technique in general: In TR-FRET formats the signal depends on donor and acceptor labels being close together.
Sequence of Eukaryotic translation initiation factor 4E (P63073 whole entry): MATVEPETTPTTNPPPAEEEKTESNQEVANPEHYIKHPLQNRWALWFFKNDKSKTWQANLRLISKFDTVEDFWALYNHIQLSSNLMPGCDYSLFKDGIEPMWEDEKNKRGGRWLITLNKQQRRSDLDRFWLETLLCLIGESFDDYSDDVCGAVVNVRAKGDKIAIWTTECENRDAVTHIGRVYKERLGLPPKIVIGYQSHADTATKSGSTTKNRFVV

The structures appear in SMILES notation. Active and inactive are the calls of the source.

As a reminder, the IC50 is the point on the concentration scale where inhibition reaches its midpoint. With `O=C1c2oc3ccccc3c(=O)c2C(c2cccc(F)c2)N1CCCO` (stereo not drawn), the IC50 in test [1] was > 50 µM (inactive).

Broadly, the AC50 is the midpoint of the concentration-response curve, whichever way the signal moves. Regarding `CC(=O)N1CCc2c(sc(NC(=O)c3ccc([N+](=O)[O-])o3)c2C#N)C1`, the AC50 in test [2] is 2.22 µM (active); in test [3] it was 2.71 µM (active); in test [4], 26.6 µM (active).

With `CSc1ccc(C(=O)C2CCCN(C(=O)c3ccc4c(c3)no[n+]4[O-])C2)cc1` (stereo not drawn), the CC50 in test [5] was 10.8 µM (active); in [6], 39.4 µM (active); in test [7] it was 13.7 µM (active). Also, in test [8], the half-maximal inhibitory concentration (IC50) is 1.5 µM (active).

Usually EC50 stands for the concentration at which the effect is half-maximal. Turning to `CCOC(=O)CSc1nc(N)c(C#N)c(-c2ccc(OCC)cc2)c1C#N`, the EC50 in test [9] and in test [10] was > 59.6 µM (inactive) in each case.

For `O=C(Nc1cc(=O)[nH]c2ncnn12)c1ccco1`, the IC50 in test [1] was > 50 µM (inactive).

As for `O=C(NNC(=O)c1cnccn1)c1ccc(Cl)c(Cl)c1`, the CC50 in [6] is 14.6 µM (active); in [7] it was 12.5 µM (active). For the same compound, the 50% inhibitory concentration (IC50) in test [8] was 6.17 µM (active).

For `COc1ccc(Cc2n[nH]c(=S)n2NC(=O)Nc2ccc(C)cc2)cc1`, the IC50 in test [11] was > 100 µM (inactive).

On to `COC(=O)/C(=C1/Oc2cc(C)oc(=O)c2S1)C(F)(F)F`, for which the CC50 in [5] was 9.91 µM (active); in test [6] it was 10.2 µM (active); in [7], 7.26 µM (active). Also, the half-inhibitory concentration (IC50) in [8] is 1.64 µM (active). Besides, the AC50 is > 380 µM (inactive) in [12], 4.64 µM (active) in test [14], 43 µM (active) in test [15] and 16.6 µM (active) in test [16]. The EC50 in test [13] was 3.74 µM (active).

For `Cc1ccc(-c2cc(C)nc3nc(N)nn23)cc1`, the AC50 in test [17] was 62.7 µM (active).

Regarding `Cc1ccc(C(=O)NCC(=O)OC(C)C(=O)Nc2ccc(N3CCOCC3)cc2)s1` (stereo not drawn), in [1], the IC50 is > 50 µM (inactive).

Regarding `COc1cc(OC)c(/C=N/NC(=O)c2ccc(NC(C)=O)cc2)cc1Br`, the half-maximal inhibitory concentration (IC50) was 22.1 µM (active) in test [11] and 50 µM (inactive) in [18].
